The subject of series [1] is honeybees (Apis mellifera). The experiment in a line: Mortality of the topically treated host honeybees (Example 1). Format: in vivo. To be noted: 5 days at 31°C. How it is done:
(§1) In this evaluation, honeybees (Apis mellifera) taken from hives which are 70% infested with Varroa jacobsoni (Varroa mites) are chilled to immobilize the bees. A 1µl droplet of an acetone solution of test compound is applied to the dorsal abdomen of each bee. Control bees receive a 1µl droplet of acetone. A total of 50-52 bees are treated for each dose rate tested. Treatment dose rates are based upon the LD50 (dose rate required to obtain 50% mortality of healthy uninfected bees) of each test compound and are set at 10% of the LD50 and subsequent 10-fold dilutions thereof. The treated bees are placed in an incubator at 31°C in the dark and fed 50% sugar water ad libitum for 5 days. After incubation, the bees are examined for mortality and mite infestation.

In series [2] the test system is Varroa jacobsoni (Varroa mites). Put plainly: Efficacy against Varroa jacobsoni on topically treated honeybees (Example 1, hives 70% infested): parasite mortality. It counts as in vivo. Conditions: 120 h, 5 days at 31°C, read-out: % Mortality Parasites. How it is done: as §1
For the next series, the system named is honeybees. The experiment in a line: Mortality of the topically treated host honeybees (Example 2). It counts as in vivo, Apis mellifera. Conditions: bees 90% infected. As for the experimental part:
as §1
(§2) Using essentially the same procedure described in Example 1, but employing honeybees which are 90% infected with Varroa jacobsoni, the following results are obtained and shown in Table II below.

The test system of another series is Varroa jacobsoni. Put plainly: Efficacy against Varroa jacobsoni on topically treated honeybees (Example 2, bees 90% infected): mite mortality. Conditions: 120 h, read-out: % Mortality Mites. It counts as in vivo. As for the experimental part:
as §1, §2

The mark [3] stands for this setting: 0.002 µg/bee topical in acetone.

What is called mortality is the share of the test organisms that died.

Take `CN(c1ccc(F)c(C(F)(F)F)c1)c1cc(Oc2ccc(F)c(C(F)(F)F)c2)ncn1` [A]: the “% Mortality Bees” value was 21% in series [1] (0.08 µg/bee topical in acetone), 13% in series [1] (0.8 µg/bee topical in acetone) and 21% in series [1] (8:0 µg/bee topical in acetone). In addition, the mortality at 0.08 µg/bee in series [2] (0.08 µg/bee topical in acetone) was determined as 75%. For the same compound, in series [2] (0.8 µg/bee topical in acetone), the mortality at 0.8 µg/bee stood at 100%. In series [2] (8:0 µg/bee topical in acetone), the mortality at 8 µg/bee turned out to be 92%.

Take `Fc1ccc(Oc2cc(Oc3ccc(F)c(C(F)(F)F)c3)ncn2)cc1C(F)(F)F` [B]: the “% Mortality Bees” value is 16% in series [1] (setting [3]), 14% in series [1] (0.02 µg/bee topical in acetone) and 10% in series [1] (0.2 µg/bee topical in acetone). The mortality at 0.002 µg/bee in series [2] (setting [3]) is 6%. Besides, in series [2] (0.02 µg/bee topical in acetone), the mortality at 0.02 µg/bee came out at 36%. For the same compound, in series [2] (0.2 µg/bee topical in acetone), the mortality at 0.2 µg/bee is 88%.

`CN(c1ccc(F)c(C(F)(F)F)c1)c1cc(Oc2ccc(F)c(C(F)(F)F)c2)ncn1` [C]: the “% Mortality Bees” value worked out at 13% in the series on honeybees (0.01 µg/bee topical), 12% with honeybees (0.10 µg/bee topical) and 16% in the series with honeybees (1.00 µg/bee topical). The mortality at 0.01 µg/bee in the series on Varroa jacobsoni (0.01 µg/bee topical) is 8%. The mortality at 0.1 µg/bee in the series on Varroa jacobsoni (0.10 µg/bee topical) is 80%. The mortality at 1 µg/bee in the series with Varroa jacobsoni (1.00 µg/bee topical) turned out to be 91%.

For the origin of these results see EP0972447B1, “Parasitic and saprophagous mite control on beneficial insects” (BASF AKTIENGESELLSCHAFT, priority 1998, dated 2000).
